Assay results published in ChEMBL document CHEMBL3045795, “Peroxidizing Phytotoxic Activity of 1, 3, 4-Thiadiazolidine-2-thiones and 1, 2, 4-Triazolidine-3, 5-dithiones” (J Pestic Sci, 1995).

Tests used:
Scenedesmus acutus [1] = assay: Phytotoxicity against Scenedesmus acutus assessed as reduction in chlorophyll content by spectrophotometry; format: functional, organism-based; conditions: read-out: pI50 (converted)
[2] = target: T1, Protoporphyrinogen IX oxidase (UniProt C1N1S5); assay: Inhibition of Protoporphyrinogen IX oxidase in Scenedesmus acutus assessed as protoporphyrin IX level per ml of packed cell volume by HPLC; further: test concentration or dose not given here
T1 sequence (whole entry): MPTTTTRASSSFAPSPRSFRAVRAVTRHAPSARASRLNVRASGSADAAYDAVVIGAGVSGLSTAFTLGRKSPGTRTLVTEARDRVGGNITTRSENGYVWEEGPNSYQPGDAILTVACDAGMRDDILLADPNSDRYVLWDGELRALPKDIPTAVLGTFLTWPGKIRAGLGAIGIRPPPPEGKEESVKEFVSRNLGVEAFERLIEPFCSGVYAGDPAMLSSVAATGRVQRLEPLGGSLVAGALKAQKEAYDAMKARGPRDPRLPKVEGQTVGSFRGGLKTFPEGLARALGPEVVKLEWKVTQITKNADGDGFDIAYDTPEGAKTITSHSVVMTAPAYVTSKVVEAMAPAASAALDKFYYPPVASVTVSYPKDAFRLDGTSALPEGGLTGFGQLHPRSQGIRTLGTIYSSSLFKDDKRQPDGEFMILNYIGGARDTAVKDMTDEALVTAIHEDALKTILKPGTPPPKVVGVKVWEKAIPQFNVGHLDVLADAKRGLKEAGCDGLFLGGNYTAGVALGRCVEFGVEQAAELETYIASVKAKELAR

Scenedesmus acutus [3] = assay: Peroxidizing phytotoxicity against Scenedesmus acutus assessed as ethane production after 20 hr by gas chromatography; format: functional, organism-based; conditions: read-out: pI50 (converted)
Scenedesmus acutus [4] = assay: Growth inhibition of Scenedesmus acutus assessed as reduction in packed cell volume; format: functional, organism-based; conditions: read-out: pI50 (converted)
[5] = target: T2, Protoporphyrinogen IX oxidase (Zea mays, UniProt Q9FYV8); assay: Inhibition of Protoporphyrinogen IX oxidase in Zea mays cv. Anjou (maize) seedlings etioplasts homogenates assessed as reduction in protoporphyrin IX production by fluorescence spectroscopy; conditions: read-out: pI50 (converted)
T2 sequence (Q9FYV8 whole entry): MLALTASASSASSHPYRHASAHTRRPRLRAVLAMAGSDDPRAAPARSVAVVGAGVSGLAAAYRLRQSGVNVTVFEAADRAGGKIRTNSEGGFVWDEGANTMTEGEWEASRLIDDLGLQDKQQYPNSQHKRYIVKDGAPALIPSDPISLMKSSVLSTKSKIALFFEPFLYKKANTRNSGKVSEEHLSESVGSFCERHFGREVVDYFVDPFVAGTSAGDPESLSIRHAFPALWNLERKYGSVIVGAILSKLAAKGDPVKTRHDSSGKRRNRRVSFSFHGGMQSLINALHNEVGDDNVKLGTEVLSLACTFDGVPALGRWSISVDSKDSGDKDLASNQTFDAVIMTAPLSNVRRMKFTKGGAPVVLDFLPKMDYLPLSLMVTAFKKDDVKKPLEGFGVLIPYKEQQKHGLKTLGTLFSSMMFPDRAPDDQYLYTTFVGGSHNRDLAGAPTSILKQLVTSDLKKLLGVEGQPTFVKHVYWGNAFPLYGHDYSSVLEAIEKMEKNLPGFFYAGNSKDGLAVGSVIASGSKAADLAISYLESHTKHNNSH

SMILES	IC50 (Scenedesmus acutus [1])	Activity [2]	IC50 (Scenedesmus acutus [3])	IC50 (Scenedesmus acutus [4])	IC50 [5]
S=c1s/c(=N\c2ccccc2)n2n1CCCC2	13.8 µM	10.8 nmol	4.37 µM	14.1 µM	> 31.6 µM
C#CCOc1cc(/N=c2\sc(=S)n3n2CCCC3)c(F)cc1Cl	0.0055 µM	63.5 nmol	0.0794 µM	0.00724 µM	0.204 µM
S=c1n(-c2ccc(Cl)cc2)c(=S)n2n1CCCC2	0.0437 µM	50.3 nmol	0.0501 µM	0.0617 µM	0.00676 µM
Fc1cc(Cl)ccc1/N=c1\sc(=S)n2n1CCCC2	0.0676 µM	31.5 nmol	0.0912 µM	0.12 µM	1.1 µM
Cc1cc(Cl)ccc1/N=c1\sc(=S)n2n1CCCC2	0.275 µM	20.3 nmol	0.513 µM	0.457 µM	7.59 µM
Fc1cc(Cl)ccc1-n1c(=S)n2n(c1=S)CCCC2	0.0182 µM	70.3 nmol	0.0275 µM	0.0234 µM	0.00724 µM
CCOc1cc(Oc2ccc(C(F)(F)F)cc2Cl)ccc1[N+](=O)[O-] [OXYFLUORFEN]	0.0214 µM	65.6 nmol	0.0417 µM	0.0309 µM	0.00794 µM
CC(C)Oc1cc(-n2c(=S)n3n(c2=S)CCCC3)c(F)cc1Cl	0.00525 µM	60.2 nmol	0.0676 µM	0.00759 µM	0.0012 µM
S=c1n(-c2ccc(OCc3ccc(Cl)cc3)cc2)c(=S)n2n1CCCC2	0.0155 µM	80.3 nmol	0.0229 µM	0.0174 µM	0.012 µM
COC(=O)CSc1cc(-n2c(=S)n3n(c2=S)CCCC3)c(F)cc1Cl	0.141 µM	56 nmol	0.158 µM	0.186 µM	–
COC(=O)CSc1cc(/N=c2\sc(=S)n3n2CCCC3)c(F)cc1Cl	0.191 µM	34.1 nmol	0.389 µM	0.245 µM	0.12 µM
CC(C)Oc1cc(/N=c2\sc(=S)n3n2CCCC3)c(F)cc1Cl	0.0112 µM	30.7 nmol	0.166 µM	0.0138 µM	0.617 µM
Cc1cc(Cl)ccc1-n1c(=S)n2n(c1=S)CCCC2	0.0851 µM	63.3 nmol	0.0851 µM	0.105 µM	0.151 µM
S=c1n(-c2ccccc2)c(=S)n2n1CCCC2	6.31 µM	13.2 nmol	2.04 µM	7.94 µM	3.24 µM
S=c1s/c(=N\c2ccc(Cl)cc2)n2n1CCCC2	0.234 µM	20.3 nmol	0.55 µM	0.339 µM	1.1 µM
S=c1n(-c2ccc(Br)cc2)c(=S)n2n1CCCC2	0.0372 µM	67.9 nmol	0.0468 µM	0.0646 µM	0.00724 µM
S=c1s/c(=N\c2ccc(OCc3ccc(Cl)cc3)cc2)n2n1CCCC2	0.02 µM	30.7 nmol	0.12 µM	0.0219 µM	0.813 µM
S=c1s/c(=N\c2ccc(Br)cc2)n2n1CCCC2	0.148 µM	25.3 nmol	0.55 µM	0.162 µM	0.741 µM
C#CCOc1cc(-n2c(=S)n3n(c2=S)CCCC3)c(F)cc1Cl	0.0017 µM	87.2 nmol	0.00724 µM	0.00204 µM	0.00891 µM
